Source: patent US10457707B2, “Substituted urea depsipeptide analogs as activators of the CLPP endopeptidase” (priority 2015, dated 2019)
Values after ≈ are worked out from the molar mass of the structure shown. Like-named read-outs stand apart in the source and are kept apart here. *1 amine or outer side, *2 acyl side, *3 side chain or, on linkers, in order; H or OH if unused. Where a SMILES comes first, the peptide text is derived from it. Bridges are numbered along the chain shown (N, C = ends). [ ]: non-standard residue; d: D form. The star is where a group is joined. Phe(3,5-F2) = N[C@@H](Cc1cc(F)cc(F)c1)C(=O)O; NH(1-Me-indolin-5-yl) = CN1CCc2cc(N*)ccc21; NMepT = CN[C@H](C(=O)O)[C@@H](C)OP(=O)(O)O; NH(4-OCF3-phenyl) = FC(F)(F)Oc1ccc(N*)cc1; Morpholine(3S-CO) = O=C(O)[C@@H]1COCCN1; Pro(4S-Me) = C[C@@H]1CN[C@H](C(=O)O)C1; NH(4-Cl-2-F-phenyl) = Fc1cc(Cl)ccc1N*; Pro(4R-Me) = C[C@H]1CN[C@H](C(=O)O)C1; Hyp = O=C(O)[C@@H]1C[C@@H](O)CN1; NMeT = CN[C@H](C(=O)O)[C@@H](C)O; Heptenoyl(2E) = CCCC/C=C/C(=O)*; NH(4-Me-phenyl) = Cc1ccc(N*)cc1; aThr = C[C@H](O)[C@H](N)C(=O)O; Pip = O=C(O)[C@@H]1CCCCN1; NMeA = CN[C@@H](C)C(=O)O; CO = O=C([*:1])[*:2]

Experiments:
[1] = system: Staphylococcus aureus, NRS70; assay: Minimal inhibitory concentration assay (microbroth dilution); assay type: cell-based
How it was run: (§1)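 MIC is the lowest concentration stopping visible growth after overnight aerobic culture at 37 °C, per CLSI microbroth dilution (about 10^5 cfu/mL; two-fold series, top final 200 μM). ClpP-inactivated S. aureus USA 300 tested alongside parent strain to probe ClpP-mediated killing.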

[2] = system: Staphylococcus aureus, ATCC 29213; assay: as above; assay type: cell-based; conditions: ATCC29213, read-out: Minimal Inhibitory Concentrations S. aureus ATCC 29213
How it was run: as §1

[3] = system: Bacillus subtilis, ATCC 23857; assay: as above; assay type: cell-based
How it was run: as §1

[4] = target: T1, Sa-ClpP (Staphylococcus aureus, UniProt Q2G036); assay: ADEP displacement fluorescence polarization assay (FP probe ADEP 2591); assay type: binding
T1 construct: made in house; host or cells: E. coli BL21(DE3)
T1 sequence (Q2G036 1-195): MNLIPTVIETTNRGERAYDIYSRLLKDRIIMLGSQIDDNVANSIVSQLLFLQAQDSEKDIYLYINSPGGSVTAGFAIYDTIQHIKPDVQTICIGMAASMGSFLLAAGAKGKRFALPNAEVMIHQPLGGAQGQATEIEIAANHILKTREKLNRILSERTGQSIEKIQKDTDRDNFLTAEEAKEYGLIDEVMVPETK
How it was run: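 Probe displacement was measured in mP after compounds sat 120 min at room temperature with pre-equilibrated (1 h) Sa-ClpP (15 μM) and ADEP 2591 FP probe (50 nM) in pH 8.0 Tris-HCl with 2% DMSO. Data were scaled between DMSO and 200 μM ADEP 2378 and fit by variable-slope log-inhibitor regression.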

[5] = system: Streptococcus pyogenes, ATCC 700294; assay: Minimal inhibitory concentration assay (microbroth dilution); assay type: cell-based
How it was run: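 Plates with two-fold compound dilution series in broth were incubated overnight, aerobically, at 37° C, following CLSI microdilution guidance.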

[6] = Staphylococcus aureus, NRS70; read-out: Minimal Inhibitory Concentrations S. aureus NRS70
[7] = Bacillus subtilis, ATCC23857; read-out: Minimal Inhibitory Concentrations B. subtilis ATCC 23857
[8] = Streptococcus pyogenes, ATCC700294; read-out: Minimal Inhibitory Concentrations S. pyogenes ATCC 700294
[9] = Staphylococcus aureus, NRS70, read-out: Minimal Inhibitory Concentrations S. aureus NRS70
[10] = Bacillus subtilis, ATCC23857, read-out: Minimal Inhibitory Concentrations B. subtilis ATCC 23857
[11] = Streptococcus pyogenes, ATCC700294, read-out: Minimal Inhibitory Concentrations S. pyogenes ATCC 700294

Row | SMILES | MIC [1, 6] [µM] | MIC [2] [µM] | MIC [3, 7] [µM] | IC50 [4] [µM] | MIC [5, 8] [µM] | MIC [1, 9] [µM] | MIC [3, 10] [µM] | MIC [5, 11] [µM] | IC50 ([4]; displacement of FP probe ADEP 2591 from Sa-ClpP, read-out: ADEP Displacement IC50) [µM]
1 | CCCC/C=C/C(=O)N[C@@H](Cc1cc(F)cc(F)c1)C(=O)N[C@@H]1C(=O)N2CCC[C@H]2C(=O)N(C)[C@@H]([C@@H](C)O)C(=O)N[C@@H](C)C(=O)N2C[C@H](C)C[C@H]2C(=O)O[C@H]1C [Compound 308, (E)-N—((S)-3-(3,5-difluorophenyl)-1-(((2R,6S,9S,11aS,17S,18S,20aS)-9-((R)-1-hydroxyethyl)-2,6,10,18-tetramethyl-5,8,11,16,20-pentaoxohexadecahydro-1H,5H,16H-dipyrrolo[2,1-c:2′,1′-l][1]oxa[4,7,10,13]tetraazacyclohexadecin-17-yl)amino)-1-oxopropan-2-yl)hept-2-enamide] ({Heptenoyl(2E)}-[Phe(3,5-F2)][aThr]P[NMeT]A[Pro(4R-Me)]; ester 2-C) | 0.039 (≈ 0.0308 µg/mL) | 0.039 (≈ 0.0308 µg/mL) | < 0.02 | 4.4 ± 0.3 | < 0.02 |  |  |  | 
2 | C[C@@H]1C[C@H]2C(=O)O[C@@H](C)[C@H](NC(=O)[C@H](Cc3cc(F)cc(F)c3)NC(=O)Nc3ccc4c(c3)CCN4C)C(=O)N3CCC[C@H]3C(=O)N3CCCC[C@H]3C(=O)N[C@@H](C)C(=O)N2C1 [Compound 310, (S)-3-(3,5-difluorophenyl)-2-(3-(1-methylindolin-5-yl)ureido)-N-((2R,6S,8aS,14aS,20S,21S,23aS)-2,6,21-trimethyl-5,8,14,19,23-pentaoxooctadecahydro-1H,5H,14H,19H-pyrido[2,1-i]dipyrrolo[2,1-c:2′,1′-l][1]oxa[4,7,10,13]tetraazacyclo-hexadecin-20-yl)propanamide] ({NH(1-Me-indolin-5-yl)-CO}-[Phe(3,5-F2)][aThr]P[Pip]A[Pro(4R-Me)]; ester 2-C) |  | 0.078 (≈ 0.0662 µg/mL) |  | 6.9 ± 0.3 |  | 0.156 (≈ 0.132 µg/mL) | 0.078 (≈ 0.0662 µg/mL) | 0.156 (≈ 0.132 µg/mL) | 
3 | Cc1ccc(NC(=O)N[C@@H](Cc2cc(F)cc(F)c2)C(=O)N[C@@H]2C(=O)N3CCC[C@H]3C(=O)N(C)[C@@H]([C@@H](C)OP(=O)(O)O)C(=O)N[C@@H](C)C(=O)N3C[C@@H](C)C[C@H]3C(=O)O[C@H]2C)cc1 [Compound 188, (R)-1-((2S,6S,9S,11aS,17S,18S,20aS)-17-((S)-3-(3,5-difluorophenyl)-2-(3-(p-tolyl)ureido)propanamido)-2,6,10,18-tetramethyl-5,8,11,16,20-pentaoxohexadecahydro-1H,5H,16H-dipyrrolo[2,1-c:2′,1′-l][1]oxa[4,7,10,13]tetraazacyclohexadecin-9-yl)ethyl dihydrogen phosphate] ({NH(4-Me-phenyl)-CO}-[Phe(3,5-F2)][aThr]P[NMepT]A[Pro(4S-Me)]; ester 2-C) |  | 25 |  | 13.7 ± 0.6 |  | 25 | 13 | 50 | 
4 | Cc1ccc(NC(=O)N[C@@H](Cc2cc(F)cc(F)c2)C(=O)N[C@@H]2C(=O)N3C[C@H](O)C[C@H]3C(=O)N(C)[C@@H](C)C(=O)N[C@@H](C)C(=O)N3C[C@@H](C)C[C@H]3C(=O)O[C@H]2C)cc1 [Compound 214, (S)-3-(3,5-difluorophenyl)-N-((2S,6S,9S,11aS,13R,17S,18S,20aS)-13-hydroxy-2,6,9,10,18-pentamethyl-5,8,11,16,20-pentaoxohexadecahydro-1H,5H,16H-dipyrrolo[2,1-c:2′,1′-l][1]oxa[4,7,10,13]tetraazacyclohexadecin-17-yl)-2-(3-(p-tolyl)ureido)propanamide] ({NH(4-Me-phenyl)-CO}-[Phe(3,5-F2)][aThr][Hyp][NMeA]A[Pro(4S-Me)]; ester 2-C) |  | 0.391 (≈ 0.312 µg/mL) |  |  |  | 0.391 (≈ 0.312 µg/mL) | 0.391 (≈ 0.312 µg/mL) | 0.781 (≈ 0.623 µg/mL) | 5.8 ± 0.3
5 | C[C@@H]1C[C@H]2C(=O)O[C@@H](C)[C@H](NC(=O)[C@H](Cc3cc(F)cc(F)c3)NC(=O)Nc3ccc(OC(F)(F)F)cc3)C(=O)N3CCC[C@H]3C(=O)N(C)[C@@H]([C@@H](C)O)C(=O)N[C@@H](C)C(=O)N2C1 [Compound 41, (S)-3-(3,5-difluorophenyl)-N-((2R,6S,9S,11aS,17S,18S,20aS)-9-((R)-1-hydroxyethyl)-2,6,10,18-tetramethyl-5,8,11,16,20-pentaoxohexadecahydro-1H,5H,16H-dipyrrolo[2,1-c:2′,1′-l][1]oxa[4,7,10,13]tetraazacyclohexadecin-17-yl)-2-(3-(4-(trifluoromethoxy)phenyl)ureido)propanamide] ({NH(4-OCF3-phenyl)-CO}-[Phe(3,5-F2)][aThr]P[NMeT]A[Pro(4R-Me)]; ester 2-C) | 0.01 (≈ 0.00882 µg/mL) | 0.02 (≈ 0.0176 µg/mL) | 0.01 (≈ 0.00882 µg/mL) | 7.53 ± 0.2 | 0.1 (≈ 0.0882 µg/mL) |  |  |  | 
6 | C[C@@H]1C[C@H]2C(=O)O[C@@H](C)[C@H](NC(=O)[C@H](Cc3cc(F)cc(F)c3)NC(=O)Nc3ccc(Cl)cc3F)C(=O)N3C[C@H](O)C[C@H]3C(=O)N3CCOC[C@H]3C(=O)N[C@@H](C)C(=O)N2C1 [Compound 316, (S)-2-(3-(4-chloro-2-fluorophenyl)ureido)-3-(3,5-difluorophenyl)-N-((6aS,8R,12S,13S,15aS,17R,21S,23aS)-8-hydroxy-13,17,21-trimethyl-6,11,15,20,23-pentaoxooctadecahydro-6H,11H,15H-[1,4]oxazino[3,4-i]dipyrrolo[2,1-c:2′,1′-l][1]oxa[4,7,10,13]tetraazacyclo-hexadecin-12-yl)propanamide] ({NH(4-Cl-2-F-phenyl)-CO}-[Phe(3,5-F2)][aThr][Hyp][Morpholine(3S-CO)]A[Pro(4R-Me)]; ester 2-C) | 0.078 (≈ 0.0674 µg/mL) | 0.078 (≈ 0.0674 µg/mL) | 0.313 (≈ 0.271 µg/mL) | 6.9 ± 0.3 | < 0.02 |  |  |  | 
7 | Cc1ccc(NC(=O)N[C@@H](Cc2cc(F)cc(F)c2)C(=O)N[C@@H]2C(=O)N3CCC[C@H]3C(=O)N3CCOC[C@H]3C(=O)N[C@@H](C)C(=O)N3C[C@H](C)C[C@H]3C(=O)O[C@H]2C)cc1 [Compound 210, (S)-3-(3,5-difluorophenyl)-2-(3-(p-tolyl)ureido)-N-((6aS,12S,13S,15aS,17R,21S,23aS)-13,17,21-trimethyl-6,11,15,20,23-pentaoxooctadecahydro-6H,11H,15H-[1,4]oxazino[3,4-i]dipyrrolo[2,1-c:2′,1′-l][1]oxa[4,7,10,13]tetraazacyclohexadecin-12-yl)propanamide] ({NH(4-Me-phenyl)-CO}-[Phe(3,5-F2)][aThr]P[Morpholine(3S-CO)]A[Pro(4R-Me)]; ester 2-C) |  | 0.003 (≈ 0.00243 µg/mL) |  | 7.1 ± 0.2 |  | 0.0002 (≈ 0.000162 µg/mL) | 0.02 (≈ 0.0162 µg/mL) | 0.02 (≈ 0.0162 µg/mL) | 
8 | C[C@@H]1C[C@H]2C(=O)OC[C@H](NC(=O)[C@H](Cc3ccccc3)NC(=O)Nc3ccc4c(c3)OCO4)C(=O)N3CCC[C@H]3C(=O)N3CCCC[C@H]3C(=O)N[C@@H](C)C(=O)N2C1 [Compound 194, (S)-2-(3-(benzo[d][1,3]dioxol-5-yl)ureido)-N-((2R,6S,8aS,14aS,20S,23aS)-2,6-dimethyl-5,8,14,19,23-pentaoxooctadecahydro-1H,5H,14H,19H-pyrido[2,1-i]dipyrrolo[2,1-c:2′,1′-l][1]oxa[4,7,10,13]tetraazacyclohexadecin-20-yl)-3-phenylpropanamide] | 0.39 (≈ 0.307 µg/mL) | 1.56 (≈ 1.23 µg/mL) | 0.39 (≈ 0.307 µg/mL) | 8 ± 0.6 | < 0.2 |  |  |  | 
9 | CCCC/C=C/C(=O)N[C@@H](Cc1cc(F)cc(F)c1)C(=O)N[C@@H]1C(=O)N2C[C@H](O)C[C@H]2C(=O)N2CCOC[C@H]2C(=O)N[C@@H](C)C(=O)N2C[C@H](C)C[C@H]2C(=O)O[C@H]1C [Compound 309, (E)-N—((S)-3-(3,5-difluorophenyl)-1-(((6aS,8R,12S,13S,15aS,17R,21S,23aS)-8-hydroxy-13,17,21-trimethyl-6,11,15,20,23-pentaoxooctadecahydro-6H,11H,15H-[1,4]oxazino[3,4-i]dipyrrolo[2,1-c:2′,1′-l][1]oxa[4,7,10,13]tetraazacyclohexadecin-12-yl)amino)-1-oxopropan-2-yl)hept-2-enamide] ({Heptenoyl(2E)}-[Phe(3,5-F2)][aThr][Hyp][Morpholine(3S-CO)]A[Pro(4R-Me)]; ester 2-C) | 0.156 (≈ 0.125 µg/mL) | 0.156 (≈ 0.125 µg/mL) | 0.156 (≈ 0.125 µg/mL) | 7.2 ± 0.4 | < 0.02 |  |  |  | 
